Our source for the IC50 values is patent US10590081B2, “Guanidine compounds and use thereof” (ImmunoMet Therapeutics Inc., priority 2015, dated 2020).

Assay [1] relates to SK-MEL-28 cells. In words: Cytotoxicity in low glucose condition (MTT assay). The note with it: 0.75 mM glucose, 72 hours treatment, read-out: SK-MEL-280.75 mM glucose cell viability (IC50 μM). The class given is cell-based. The text has this:
Cytotoxicity Assay in Low Glucose Condition
The inhibition of oxidative phosphorylation (OXPHOS) is not cytotoxic to cells in normal glucose condition, because it is postulated that normal cells have compensatory mechanism under energy stress conditions such as low glucose. However OXPHOS inhibitors show cytotoxic effect on cells in the glucose deprived condition (BirsoyK, 2014). The glucose deprived condition is observed in tumor microenvironment potentially due to poor angiogenesis. Therefore the OXPHOS inhibitors may show anti-cancer effect on cancer cells in low glucose condition that may depict tumor microenvironment.
The compounds of the present invention were evaluated their cytotoxicity in SK-MEL-28, melanoma with 0.75 mM glucose supplement. The cytotoxic effect is compared with the cytotoxicity caused by phenformin. The cytotoxicity in low glucose condition is correlated with inhibition of oxygen consumption in mitochondria.
SK-MEL-28 (HTB-72) is a melanoma cell line obtained from ATCC (MA) and cultured in RPMI 1640 media (Lifetechnologies, CA) with supplement of 10% FBS and antibiotic-antimycotic (Lifetechnologies, CA). RPMI 1640 (−Glucose) was used to prepare low glucose media and 0.75 mM glucose was supplied with D-(+)-glucose solution from Sigma. SK-MEL-28 cells were separated from culture plate using 0.5% trypsin-EDTA and 1,250 cells were plated in 96-well plate with low glucose media. After incubation at 37° C. for 24 hour, 5% CO2, the cells were treated with the compounds of present invention in FBS-free media for 72 hours. The cytotoxicity was measured by the MTT (AMRESCO, OH) assay. NADH-dependent cellular oxidoreductase reduces MTT to its insoluble […] with purple color. The enzyme depends on cell number or energy state of cells. 10 μl of 5 mg/ml MTT solution was added to each well of the assay plate and skip the well for blank. The plate was incubated at 37° C. and 5% CO2 for 2 hours. The MTT solution was removed from each well and 100 μl of DMSO was added. The plate was read by VICTOR X3 Multilabel Counter at the wavelength of 550 nm. In Table 2, the levels of IC50 are evaluated by the following criteria.
According to the concentration of compound for killing the half of cell populations (the levels of IC50), the compounds were classified into A, B and C, when the compounds were treated on SK-MEL-28 cells at 0.75 mM glucose.
In general terms: Formazan colour is commonly taken as a measure of viable cells.

The subject of assay [2] is A549 cells. In words: Test for inhibition of OCR and enhancement of ECAR (XF Analyzer). It is filed as cell-based. The note with it: 24 hrs treatment, oxygen consumption rate. The text has this: Measurement of Mitochondrial Complex I Inhibition
The electron transfer complex in mitochondria is composed of 5 complexes. The complex I accept electrons from NADH produced from glycolysis and TCA cycle and the electrons move to complex […] and the electron is finally transferred to O2 and water molecule is generated. During the electron transfer, proton gradient is generated and the chemical gradient is a driving source to synthesize ATP at complex V. The mitochondrial inhibition of complex I indirectly assessed by measuring the oxygen consumption rate (OCR) at complex IV. […] The solution outside of cells becomes acidic (lower pH) as lactate is transported to outside of cells. OCR and Extracellular acidification rate (ECAR) are determined by XF Analyzer (Seahorse Biosciences).
A549 cells were purchased from American Type Tissue Culture Collection (CCL-185™) and cultured in RPMI 1640 supplied with 10% fetal bovine serum (FBS) and antibiotic-antimycotic (Lifetech, CA). A549 cells were separated with 0.5% Trypsin-EDTA and 3,000 cells were plated on 1 mg/ml poly-D-lysine (Sigma, P6407) coated XF 96 well […]. A549 cells were allowed to adhere to the wells for 24 hours under the condition of temperature, 37° C. and 5% CO2. The sensor cartridge of XF Analyzer was soaked in 200 μl of Calibrant solution (Seahorse, MA) in a clear 96-well plate at 37° C. for 24 hours. The compounds of the present invention were diluted with RPMI 1640 without FBS, transferred to A549 cells on XF 96 well plate, and incubated further for 23 hours at 37° C. and 5% CO2. After incubation, the compound solution was exchanged with pre-warmed and pH adjusted (pH7.4) XF assay media (Seahorse) supplied with 15 mM D-glucose (Sigma), 15 mM sodium pyruvate (Lifetechnologies, CA) and 4 mM L-glutamine (Lifetechnologies, CA). The compounds of present invention were prepared in XF Assay media and added to the assay plate. The assay plate was equilibrated in XF Analyzer for 1 hour, and the reading were started by sensor cartridge. The cytotoxicity assay was followed using Cyquant (Lifetechnologies, CA) in order to calibrate the inhibition with cytotoxicity of compounds. The concentrations of the compounds were tested at 0, 0.5, 1, 5, 10 and 20 μM and IC50 value was obtained from the inhibited values. That is, from OCR inhibition values at each concentration of the compound, IC50 was calculated according to Prism's dose response curve fitting.
In Table 1, the levels of OCR IC50 are evaluated by the following.
According to the test results of the compounds, the compounds were classified into A, B and C.

Where a name gives a salt, the structure may show the parent alone. Read-outs that look alike come from different tables or passages of the source.

One may read the IC50 as the concentration that gives 50% inhibition. Regarding `N=C(NC(=N)N1CCC(F)(F)C1)Nc1ccc(Oc2ccccc2)cc1` [Example 28, N—(N-(4-phenoxyphenyl)carbamimidoyl)-3,3-difluoropyrrolidine-1-carboximidamide acetate], the IC50 in assay [1] (Homo sapiens, SK-MEL-28, 72 h) is < 6 µM; in assay [2] (Homo sapiens), 2 to 4 µM.

Regarding `N=C(NC(=N)N1CCC(F)(F)C1)Nc1cccc(Oc2ccccc2)c1` [Example 29, N—(N-(3-phenoxyphenyl)carbamimidoyl)-3,3-difluoropyrrolidine-1-carboximidamide acetate], the IC50 in assay [1] (Homo sapiens, SK-MEL-28, 72 h) is < 6 µM; in assay [2] (Homo sapiens), < 2 µM.

Regarding `N=C(NC(=N)N1CCC(F)(F)C1)Nc1ccc(C(F)(F)F)cc1` [Example 30, N—(N-(4-(trifluoromethyl)phenyl)carbamimidoyl)-3,3-difluoropyrrolidine-1-carboximidamide acetate], the IC50 in assay [1] (Homo sapiens, SK-MEL-28, 72 h) fell in the range of 6 to 15 µM; in assay [2] (Homo sapiens), 2 to 4 µM.

Turning to `N=C(NC(=N)N1CCC(F)(F)C1)Nc1ccc(I)c(Cl)c1` [Example 31, N—(N-(3-chloro-4-iodophenyl)carbamimidoyl)-3,3-difluoropyrrolidine-1-carboximidamide acetate], the IC50 in assay [1] (Homo sapiens, SK-MEL-28, 72 h) is 6 to 15 µM; in assay [2] (Homo sapiens), 2 to 4 µM.

`N=C(NC(=N)N1CCC(F)(F)C1)Nc1ccc(OC(F)(F)F)c(Cl)c1` [Example 38, N—(N-(3-chloro-4-(trifluoromethoxy)phenyl)carbamimidoyl)-3,3-difluoropyrrolidine-1-carboximidamide acetate]: the IC50 in assay [1] (Homo sapiens, SK-MEL-28, 72 h) is 6 to 15 µM; in assay [2] (Homo sapiens), 2 to 4 µM.

As to `N=C(NCc1ccc(Cl)c(Cl)c1)NC(=N)N1CCC(F)(F)CC1` [Example 42, N—(N-(3,4-dichlorobenzyl)carbamimidoyl)-4,4-difluoropiperidine-1-carboximidamide hydrochloride], the IC50 in assay [1] (Homo sapiens, SK-MEL-28, 72 h) is 6 to 15 µM; in assay [2] (Homo sapiens), > 4 µM.

As to “N—(N-(4-(trifluoromethythio)phenyl)carbamimidoyl)-3,3-difluoropyrrolidine-1-carboximidamide acetate [Example 32]”, the figures for the IC50 in assay [1] and in assay [2] were < 6 µM and 2 to 4 µM, respectively.
